The source of these data is ChEMBL document CHEMBL1201862, “PubChem BioAssay data set” (2004).

Structures are written as SMILES.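 Tested at 5 concentrations; 48 h exposure; 96-well plates; endpoints linearly interpolated, else capped at highest concentration. Here, GI50 denotes the concentration required for 50% inhibition of growth.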 Activity calls are given as the source filed them. Rule as the data show it: active = GI50 up to about 1.1 µM and inactive = higher. Where a SMILES comes first, the peptide text is derived from it. Bridges are numbered along the chain shown (N, C = ends). [ ]: non-standard residue; d: D form. The star is where a group is joined. ξ: configuration not given here. X28 = O=C(/C=C/C=C/C=C/C=C/C=C/C(=O)*)NC1=C(O)CCC1=O; NMeA = CN[C@@H](C)C(=O)O; ξF = NC(Cc1ccccc1)C(=O)O; ξA = CC(N)C(=O)O

Among the test systems are SN12C; MOLT-4; HOP-62; SNB-19; MDA-MB-435; OVCAR-3; K562; SF-539; U-251; UACC-257; RXF 393; OVCAR-5; BT-549; EKVX; MDA-N; SF-268; UO-31; SK-OV-3; T47D; CAKI-1.
Assay in all cases: inhibition of tumour cell growth, NCI panel, 48 h

As for `COC1=C(OC)C(=O)C(Cc2c(Cl)nc3n2CCS3)=C(C)C1=O`, the GI50 in the experiment with SN12C was 16.3 µM (inactive); with MOLT-4, 1.36 µM (inactive); with HOP-62, 15.6 µM (inactive); in the experiment on SNB-19, 16.2 µM (inactive); in the experiment on MDA-MB-435, 13.9 µM (inactive); with OVCAR-3, 16.7 µM (inactive). Further, the GI50 in the experiment with K562 is 15.5 µM (inactive); with SF-539, 14.6 µM (inactive); in the experiment with U-251, 17.5 µM (inactive); in the experiment on UACC-257, 9.84 µM (inactive); in the experiment with RXF 393, 17.4 µM (inactive); with OVCAR-5, 17.6 µM (inactive). Further, the GI50 in the experiment with BT-549 was 14.4 µM (inactive); in the experiment with EKVX it was 12.1 µM (inactive); in the experiment with MDA-N, 13.9 µM (inactive); in the experiment on SF-268, 17.6 µM (inactive); in the experiment on UO-31, 13.7 µM (inactive); in the experiment on SK-OV-3, 12.6 µM (inactive). Besides, the GI50 with T47D is 4.13 µM (inactive); in the experiment with CAKI-1, 16.6 µM (inactive).

With `O=C(N/N=C\c1ccc([N+](=O)[O-])cc1)Nc1cccc2ccccc12`, the GI50 in the experiment with SN12C was 48.9 µM (inactive); with MOLT-4 it was > 100 µM (inactive); with HOP-62, 5.93 µM (inactive); with SNB-19 it was 5.07 µM (inactive); in the experiment with MDA-MB-435 it was > 100 µM (inactive); in the experiment on OVCAR-3, > 37.8 µM (inactive). The GI50 in the experiment with K562 was > 100 µM (inactive); in the experiment on SF-539, 10.7 µM (inactive); in the experiment on U-251 it was 4.79 µM (inactive); in the experiment with UACC-257, > 79.3 µM (inactive); in the experiment on RXF 393, 11 µM (inactive); in the experiment on OVCAR-5, > 100 µM (inactive). For the same compound, the GI50 is 4.25 µM (inactive) in the experiment with BT-549; 29.1 µM (inactive) in the experiment on EKVX; > 100 µM (inactive) in the experiment with MDA-N; 4.88 µM (inactive) in the experiment with SF-268; 24.5 µM (inactive) in the experiment on UO-31; 4.5 µM (inactive) in the experiment with SK-OV-3. Further, the GI50 was > 23.1 µM (inactive) in the experiment on T47D and 15.3 µM (inactive) with CAKI-1.

For the compound `NS(=O)(=O)c1ccc(NNC(=O)c2cccc3c(=O)c4ccccc4[nH]c23)cc1`, the GI50 in the experiment on SN12C is > 100 µM (inactive); in the experiment on MOLT-4, 42.2 µM (inactive); in the experiment with HOP-62 it was > 100 µM (inactive); with SNB-19 it was > 100 µM (inactive); in the experiment on MDA-MB-435, 88.1 µM (inactive); in the experiment with OVCAR-3, 56.9 µM (inactive). In addition, the GI50 with K562 is 41.7 µM (inactive); in the experiment with SF-539, > 100 µM (inactive); in the experiment with U-251, 55.1 µM (inactive); in the experiment with UACC-257, > 100 µM (inactive); in the experiment with RXF 393 it was 60.4 µM (inactive); in the experiment on OVCAR-5, > 100 µM (inactive). Further, the GI50 in the experiment with BT-549 was 62.4 µM (inactive); with EKVX, 43.6 µM (inactive); in the experiment with MDA-N, > 100 µM (inactive); in the experiment with SF-268, 71.8 µM (inactive); in the experiment on UO-31 it was 45.1 µM (inactive); with SK-OV-3, > 100 µM (inactive). Further, the GI50 in the experiment with T47D is 48.4 µM (inactive); in the experiment with CAKI-1 it was > 100 µM (inactive).

`Fc1cc(-c2cc(-c3ccccc3)n[nH]2)c(Cl)cc1Cl`: the GI50 is > 100 µM (inactive) with SN12C; 16.9 µM (inactive) in the experiment with MOLT-4; 64.4 µM (inactive) in the experiment on HOP-62; > 100 µM (inactive) in the experiment with SNB-19; > 100 µM (inactive) in the experiment with MDA-MB-435; > 100 µM (inactive) with OVCAR-3. Besides, the GI50 in the experiment on K562 was 0.492 µM (active); with SF-539, 23 µM (inactive); with U-251 it was 51.5 µM (inactive); in the experiment on UACC-257, > 100 µM (inactive); in the experiment with RXF 393, > 100 µM (inactive); with OVCAR-5, > 100 µM (inactive). The GI50 is > 100 µM (inactive) in the experiment with BT-549; 61.7 µM (inactive) in the experiment with EKVX; > 100 µM (inactive) in the experiment on MDA-N; > 100 µM (inactive) in the experiment on SF-268; > 100 µM (inactive) with UO-31; > 100 µM (inactive) in the experiment with SK-OV-3. Further, the GI50 in the experiment with T47D and in the experiment on CAKI-1 was > 100 µM (inactive) in each case.

On to `Nc1nc(O)c2ncn(C3C=CC(CO)C3)c2n1` (configuration not stated), for which the GI50 with SN12C, with HOP-62, in the experiment on SNB-19, with MDA-MB-435, with OVCAR-3 and in the experiment on K562 was > 100 µM (inactive) each time. Moreover, the GI50 in the experiment on SF-539, with U-251, in the experiment with UACC-257, in the experiment with RXF 393, in the experiment with OVCAR-5 and with BT-549 was > 100 µM (inactive) throughout. The GI50 in the experiment on EKVX, in the experiment on MDA-N, in the experiment on SF-268, in the experiment with UO-31, in the experiment with SK-OV-3 and in the experiment on T47D was > 100 µM (inactive) in each case. The GI50 with CAKI-1 is > 100 µM (inactive).

For the compound `Cc1cc2nc3c(C#N)c(-c4ccccc4)cc(Nc4ccc(Cl)cc4)n3c2cc1C`, the GI50 in the experiment on SN12C is > 100 µM (inactive); with HOP-62, > 100 µM (inactive); in the experiment on SNB-19, > 100 µM (inactive); in the experiment on MDA-MB-435, > 100 µM (inactive); in the experiment on OVCAR-3, 6.05 µM (inactive); with SF-539 it was > 100 µM (inactive). The GI50 in the experiment on U-251 is 15.9 µM (inactive); in the experiment on UACC-257, > 100 µM (inactive); in the experiment on RXF 393 it was > 100 µM (inactive); in the experiment with OVCAR-5, > 100 µM (inactive); in the experiment with BT-549, > 100 µM (inactive); with EKVX it was 8.22 µM (inactive). Besides, the GI50 was > 100 µM (inactive) in the experiment on MDA-N; 51.6 µM (inactive) in the experiment with SF-268; > 100 µM (inactive) in the experiment with UO-31; > 100 µM (inactive) in the experiment on SK-OV-3; 6.24 µM (inactive) with T47D; > 100 µM (inactive) in the experiment with CAKI-1.

For the compound `O=C1C(Br)=CC2(C=C1Br)CCNC1=C2C(=O)c2[nH]cnc2C1=O`, the GI50 in the experiment with MOLT-4 was 41.5 µM (inactive); in the experiment with HOP-62, 17.2 µM (inactive); in the experiment with MDA-MB-435, 11 µM (inactive); in the experiment on OVCAR-3 it was 15.7 µM (inactive); in the experiment with K562 it was 12.4 µM (inactive); in the experiment on SF-539, 18.1 µM (inactive). For the same compound, the GI50 with U-251 was 15 µM (inactive); with UACC-257, 14.6 µM (inactive); in the experiment on RXF 393, 16.3 µM (inactive); in the experiment on OVCAR-5 it was 15.9 µM (inactive); in the experiment with BT-549, 19.2 µM (inactive); with EKVX, 18.1 µM (inactive). Besides, the GI50 was 1.77 µM (inactive) in the experiment with MDA-N; 14.8 µM (inactive) in the experiment on SF-268; 15.9 µM (inactive) with UO-31; 21.5 µM (inactive) in the experiment on SK-OV-3; 15.6 µM (inactive) in the experiment with T47D; 24.5 µM (inactive) in the experiment with CAKI-1.

Turning to `CC1NC(=O)[C@H](C)N(C)C(=O)[C@@H]2CCCN2C(=O)[C@@H](NC(=O)C(Cc2ccccc2)NC(=O)/C=C/C=C/C=C/C=C/C=C/C(=O)NC2=C(O)CCC2=O)COC(=O)[C@@H]2CCCN2C1=O` (some centres not stated) (X28-[ξF]SP[NMeA][ξA]P; ester 2-C), the GI50 in the experiment on SN12C is > 100 µM (inactive); in the experiment on HOP-62, 48.1 µM (inactive); with SNB-19, > 100 µM (inactive); in the experiment on MDA-MB-435, > 100 µM (inactive); with OVCAR-3 it was > 100 µM (inactive); with K562, > 100 µM (inactive). The GI50 with SF-539 is > 100 µM (inactive); in the experiment with U-251 it was > 100 µM (inactive); in the experiment on UACC-257 it was > 100 µM (inactive); in the experiment on RXF 393, 35.5 µM (inactive); with OVCAR-5, > 100 µM (inactive); in the experiment on BT-549, > 100 µM (inactive). The GI50 was 96.4 µM (inactive) with EKVX; > 100 µM (inactive) with MDA-N; > 100 µM (inactive) with SF-268; 29.2 µM (inactive) with UO-31; > 100 µM (inactive) in the experiment with SK-OV-3; > 100 µM (inactive) in the experiment with T47D. Moreover, the GI50 in the experiment on CAKI-1 was 40.4 µM (inactive).

With `CC(NC(=O)C(Cc1ccc(OC(=O)c2ccccc2)cc1)NC(=O)OC(C)(C)C)C(=O)NCC(=O)NC(Cc1ccccc1)NC(=O)OCc1ccccc1` (configuration not stated), the GI50 in the experiment on SN12C was > 100 µM (inactive); with MOLT-4, 62.7 µM (inactive); with HOP-62, > 100 µM (inactive); in the experiment on SNB-19 it was > 100 µM (inactive); in the experiment on MDA-MB-435, > 100 µM (inactive); in the experiment on OVCAR-3, > 100 µM (inactive). For the same compound, the GI50 in the experiment with K562, in the experiment on SF-539, in the experiment with U-251, with RXF 393, with OVCAR-5 and in the experiment on BT-549 was > 100 µM (inactive) in each case. The GI50 with EKVX, in the experiment on MDA-N, in the experiment on SF-268, in the experiment on UO-31, with SK-OV-3 and in the experiment with T47D was > 100 µM (inactive) in each case. In addition, the GI50 with CAKI-1 was > 100 µM (inactive).

In the case of `Cc1c(-c2ccccc2)cc(O)c2nc3ccccc3n12`, the GI50 was > 100 µM (inactive) in the experiment on SN12C; 8.28 µM (inactive) in the experiment with MOLT-4; 21.1 µM (inactive) in the experiment with HOP-62; 96.8 µM (inactive) with SNB-19; 13.7 µM (inactive) in the experiment with MDA-MB-435; > 100 µM (inactive) with OVCAR-3. Moreover, the GI50 was 5.82 µM (inactive) in the experiment on K562; > 100 µM (inactive) with SF-539; 6.75 µM (inactive) with U-251; > 100 µM (inactive) with UACC-257; 83.6 µM (inactive) in the experiment on RXF 393; > 100 µM (inactive) in the experiment on OVCAR-5. For the same compound, the GI50 with BT-549 was 12.6 µM (inactive); with EKVX, > 100 µM (inactive); with MDA-N, 46.8 µM (inactive); with SF-268 it was > 10 µM (inactive); with UO-31 it was 9.25 µM (inactive); in the experiment on T47D, > 100 µM (inactive). Also, in the experiment on CAKI-1, the GI50 is 74.1 µM (inactive).
